Patent US12428415B2, “Matriptase 2 inhibitors and uses thereof” (Disc Medicine, Inc., priority 2018, dated 2025)

Biological target: T1, Human Recombinant Matriptase 2 (Homo sapiens, UniProt Q8IU80)
T1 construct: purchased Enzo Life Sciences (an in-house preparation was also used) ALX-201-752-1
T1 sequence (Q8IU80 1-811): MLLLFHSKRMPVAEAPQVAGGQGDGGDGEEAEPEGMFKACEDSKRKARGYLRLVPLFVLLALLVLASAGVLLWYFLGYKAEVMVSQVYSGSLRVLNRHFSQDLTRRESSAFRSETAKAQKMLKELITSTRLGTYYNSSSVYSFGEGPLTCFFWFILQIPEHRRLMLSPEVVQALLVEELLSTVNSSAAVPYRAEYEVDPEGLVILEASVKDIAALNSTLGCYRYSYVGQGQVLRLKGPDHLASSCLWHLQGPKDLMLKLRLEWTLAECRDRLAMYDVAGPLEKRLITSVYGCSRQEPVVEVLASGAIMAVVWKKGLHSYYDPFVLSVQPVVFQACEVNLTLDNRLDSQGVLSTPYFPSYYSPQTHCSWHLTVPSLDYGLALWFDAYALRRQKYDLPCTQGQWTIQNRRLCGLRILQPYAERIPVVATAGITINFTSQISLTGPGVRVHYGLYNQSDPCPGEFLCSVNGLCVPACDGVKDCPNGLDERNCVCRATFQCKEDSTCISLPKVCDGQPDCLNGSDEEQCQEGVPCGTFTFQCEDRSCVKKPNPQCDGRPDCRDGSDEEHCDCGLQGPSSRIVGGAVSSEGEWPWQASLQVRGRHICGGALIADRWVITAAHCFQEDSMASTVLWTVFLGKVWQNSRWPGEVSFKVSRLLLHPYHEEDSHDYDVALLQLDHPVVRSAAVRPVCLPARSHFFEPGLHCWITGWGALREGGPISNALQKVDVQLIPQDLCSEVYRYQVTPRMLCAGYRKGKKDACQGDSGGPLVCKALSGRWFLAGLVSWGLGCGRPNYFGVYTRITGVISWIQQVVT
Assay: Matriptase 2 fluorescence based inhibition assay, Method A (100 mM TRIS pH 9, 1 mg/mL BSA)
Assay type: biochemical
Conditions: 1 uM compound; Assay Used = A; read-out: Mar-2 % inhibition at 1 uM
Method in brief: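 At 25° C in 100 mM TRIS pH 9 with 1 mg/mL BSA and 1% DMSO, compounds were preincubated 30 min with 7 nM commercial or 15 nM in-house protein before adding 100 μM Boc-Gln-Ala-Arg-7-amido-4-methyl coumarin. Fluorescence at 360/480 nm after 60 min; single points at 1 and 10 μM, IC50 by variable-slope nonlinear regression.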

Compared with N/C(=N\O)c1ccc2cc(C(=O)NCC3CCNCC3)n(Cc3ccc4ccccc4c3)c2c1 [Compound I-398, 6-(N′-hydroxycarbamimidoyl)-1-(naphthalen-2-ylmethyl)-N-(piperidin-4-ylmethyl)-1H-indole-2-carboxamide], N=C(N)c1ccc2cc(C(=O)N[C@H]3CC[C@H](N)CC3)n(S(=O)(=O)c3ccc4ccccc4c3)c2c1 [Compound I-397] is higher in inhibition at 1 µM: 0 to 25% for the first, 25 to 50% for the second.

Same assay, conditions: 1 uM; Assay Used A; read-out: Mar-2 % inhibition at 1 uM

N=C(N)c1ccc2cc(C(=O)NC3CCC(N)CC3)n(Cc3ccc(OC(F)(F)F)cc3)c2c1 (stereo not shown) [Compound I-11] and N=C(N)c1ccc2cc(C(=O)N[C@H]3CC[C@H](N)CC3)n(CCc3ccc(F)cc3)c2c1 [Compound I-30] fall in the same range of inhibition at 1 µM: 25 to 50% for the first, 25 to 50% for the second.

First: N=C(N)c1ccc2cc(C(=O)NCC3CCCCC3)n(Cc3ccc(C(F)(F)F)cc3)c2c1 [Compound I-10]
Second: CC(C)c1ccc(Cn2c(C(=O)NCC3CCCCC3)cc3ccc(C(=N)N)cc32)cc1 [Compound I-16]
The inhibition at 1 µM of the first is higher: 25 to 50% for the first, 0 to 25% for the second.

CC1CCC(NC(=O)c2cc3ccc(C(=N)N)cc3n2Cc2ccc(C(N)=O)cc2)CC1 (stereo not shown) [Compound I-185] and N=C(N)c1ccc2cc(C(=O)Nc3cncc(F)c3)n(Cc3ccc(C(N)=O)cc3)c2c1 [Compound I-172] fall in the same range of inhibition at 1 µM: 0 to 25% for the first, 0 to 25% for the second.

CC(C)(NC(=O)c1cc2ccc(C(=N)N)cc2n1Cc1ccc(C(N)=O)cc1)c1ccc(Cl)cc1 [Compound I-109] and C[C@@H](NC(=O)c1cc2ccc(C(=N)N)cc2n1Cc1ccc(C(N)=O)cc1)c1ccc(F)c(Cl)c1 [Compound I-113] fall in the same range of inhibition at 1 µM: 0 to 25% for the first, 0 to 25% for the second.

Compared with CCOC(=O)NC(=N)c1ccc2cc(C(=O)Nc3ccc(N4CCCC4)cc3)n(Cc3ccc(C(N)=O)cc3)c2c1 [Compound I-119], CN(C)C(=O)COc1ccc(NC(=O)c2cc3ccc(C(=N)N)cc3n2Cc2ccc(C(N)=O)cc2)cc1 [Compound I-99] is higher in inhibition at 1 µM: 0 to 25% for the first, 25 to 50% for the second.

Compared with N=C(N)c1ccc2cc(C(=O)NCc3ccncc3)n(Cc3ccc(C(N)=O)cc3)c2c1 [Compound I-168], C[C@H](NC(=O)c1cc2ccc(C(=N)N)cc2n1Cc1ccc(C(N)=O)cc1)c1cccc(F)c1 [Compound I-95] is lower in inhibition at 1 µM: 25 to 50% for the first, 0 to 25% for the second.

N=C(N)c1ccc2cc(C(=O)Nc3ccc(N)nc3)n(Cc3ccc(C(F)(F)F)cc3)c2c1 [Compound I-1, N-(6-aminopyridin-3-yl)-6-carbamimidoyl-1-(4-(trifluoromethyl)benzyl)-1H-indole-2-carboxamide] and CN(C)C(=O)COc1cccc(NC(=O)c2cc3ccc(C(=N)N)cc3n2Cc2ccc(C(N)=O)cc2)c1 [Compound I-93] fall in the same range of inhibition at 1 µM: 0 to 25% for the first, 0 to 25% for the second.

Compared with N=C(N)c1ccc2cc(C(=O)N[C@H]3CC[C@H](N)CC3)n(CCc3ccccc3)c2c1 [Compound I-27], N=C(N)c1ccc2cc(C(=O)NC3CCN(CCN)CC3)n(CCc3ccccc3)c2c1 [Compound I-28, N-(1-(2-Aminoethyl)piperidin-4-yl)-6-carbamimidoyl-1-phenethyl-1H-indole-2-carboxamide] is lower in inhibition at 1 µM: 50 to 75% for the first, 25 to 50% for the second.

N=C(N)c1ccc2c([N+](=O)[O-])c(C(=O)N[C@H]3CC[C@H](N)CC3)n(CCS(=O)(=O)c3ccccc3)c2c1 [Compound I-55, N-((1r,4r)-4-Aminocyclohexyl)-6-carbamimidoyl-3-nitro-1-(2-(phenylsulfonyl)ethyl)-1H-indole-2-carboxamide] and N=C(N)c1ccc2cc(C(=O)Nc3cccc(F)c3)n(CCS(=O)(=O)c3ccccc3)c2c1 [Compound I-41] fall in the same range of inhibition at 1 µM: 0 to 25% for the first, 0 to 25% for the second.

NC(=O)c1ccc(Cn2c(C(=O)Nc3cccc(-c4ccccn4)c3)cc3ccc(C(N)=O)cc32)cc1 [Compound I-136, 1-(4-Carbamoylbenzyl)-N^2-(3-(pyridin-2-yl)phenyl)-1H-indole-2,6-dicarboxamide] and CC(C)[C@H](NC(=O)c1cc2ccc(C(=N)N)cc2n1Cc1ccc(C(N)=O)cc1)c1ccccc1 [Compound I-82] fall in the same range of inhibition at 1 µM: 0 to 25% for the first, 0 to 25% for the second.

Same assay, conditions: at 1 uM; Assay Used = A; read-out: Mar-2 % inhibition at 1 uM

CN(CC1CCCCC1)C(=O)c1cc2ccc(C(=N)N)cc2n1Cc1ccc(C(N)=O)cc1 [Compound I-232, 6-Carbamimidoyl-1-(4-carbamoylbenzyl)-N-(cyclohexylmethyl)-N-methyl-1H-indole-2-carboxamide] and N=C(N)c1ccc2cc(C(=O)N3CCC(F)CC3)n(Cc3ccc(C(=O)NCCN)cc3)c2c1 [Compound I-393] fall in the same range of inhibition at 1 µM: 0 to 25% for the first, 0 to 25% for the second.

First: N=C(N)c1ccc2cc(C(=O)N3CCC(CCN)CC3)n(Cc3ccc(NC(=O)CCCN)cc3)c2c1 [Compound I-372]
Second: N=C(N)c1ccc2cc(C(=O)N3CCC(CCN)CC3)n(Cc3ccc(OC(F)(F)F)cc3)c2c1 [Compound I-288]
The inhibition at 1 µM of the first is higher: 25 to 50% for the first, 0 to 25% for the second.

N=C(N)c1ccc2c(Cl)c(C(=O)N3CCC(F)CC3)n(Cc3ccc(C(N)=O)cc3)c2c1 [Compound I-355] and N=C(N)c1ccc2cc(C(=O)N3CCC(CCCC(N)=O)CC3)n(Cc3ccc(C(F)(F)F)cc3)c2c1 [Compound I-322] fall in the same range of inhibition at 1 µM: 0 to 25% for the first, 0 to 25% for the second.

First: N=C(N)c1ccc2cc(C(=O)N[C@H]3CC[C@H](N)CC3)n(Cc3ccc(NC(=O)CCN)cc3)c2c1 [Compound I-262, N-((1r,4r)-4-Aminocyclohexyl)-1-(4-(3-aminopropanamido)benzyl)-6-carbamimidoyl-1H-indole-2-carboxamide]
Second: N=C(N)c1ccc2cc(C(=O)N[C@H]3CC[C@H](N)CC3)n(Cc3cccc(NC(=O)CCN)c3)c2c1 [Compound I-257, N-((1r,4r)-4-aminocyclohexyl)-1-(3-(3-aminopropanamido)benzyl)-6-carbamimidoyl-1H-indole-2-carboxamide]
The inhibition at 1 µM of the first is lower: 25 to 50% for the first, 50 to 75% for the second.

First: N=C(N)c1ccc2cc(C(=O)N[C@H]3CC[C@H](NC(=O)CCN)CC3)n(Cc3ccc(Oc4ccccc4)cc3)c2c1 [Compound I-242, N-((1r,4r)-4-(3-Aminopropanamido)cyclohexyl)-6-carbamimidoyl-1-(4-phenoxybenzyl)-1H-indole-2-carboxamide]
Second: N=C(N)c1ccc2c(N)c(C(=O)N[C@H]3CC[C@H](NC(=O)O)CC3)n(Cc3ccc(Oc4ccccc4)cc3)c2c1 [Compound I-253, ((1r,4r)-4-(3-Amino-6-carbamimidoyl-1-(4-phenoxybenzyl)-1H-indole-2-carboxamido)-cyclohexyl) carbamic Acid]
The inhibition at 1 µM of the first is higher: 25 to 50% for the first, 0 to 25% for the second.

NC(=O)c1ccc2cc(C(=O)N3CCc4ccccc4C3)n(Cc3ccc(-c4ccccc4)cc3)c2c1 [Compound I-394, 1-([1,1′-Biphenyl]-4-ylmethyl)-2-(1,2,3,4-tetrahydroisoquinoline-2-carbonyl)-1H-indole-6-carboxamide] and N=C(N)c1ccc2cc(C(=O)N3CC[C@H](F)C3)n(Cc3ccc(-c4ccccc4)cc3)c2c1 [Compound I-309] fall in the same range of inhibition at 1 µM: 0 to 25% for the first, 0 to 25% for the second.

First: CNC(=O)c1ccc(Cn2c(C(=O)NC3CCC(C)CC3)cc3ccc(C(=N)N)cc32)cc1 (stereo not shown) [Compound I-220, 6-Carbamimidoyl-1-(4-(methylcarbamoyl)benzyl)-N-(4-methylcyclohexyl)-1H-indole-2-carboxamide]
Second: N=C(N)c1ccc2cc(C(=O)N[C@H]3CC[C@H](N)CC3)n(Cc3ccc(Oc4ccc(F)cc4)nc3)c2c1 [Compound I-246]
The inhibition at 1 µM of the first is lower: 0 to 25% for the first, 50 to 75% for the second.

CC(C)CCn1c(C(=O)N2CCC(F)CC2)cc2ccc(C(=N)N)cc21 [Compound I-270, 2-(4-Fluoropiperidine-1-carbonyl)-1-isopentyl-1H-indole-6-carboximidamide] and CC(C)CCn1c(C(=O)N2CCC(F)(F)C2)cc2ccc(C(=N)N)cc21 [Compound I-273] fall in the same range of inhibition at 1 µM: 0 to 25% for the first, 0 to 25% for the second.

N=C(N)c1ccc2cc(C(=O)N[C@]34CC5CC(C[C@@](O)(C5)C3)C4)n(Cc3ccc(C(N)=O)cc3)c2c1 [Compound I-198] and N=C(N)c1ccc2cc(C(=O)NC34CC5CC(CC(C5)C3)C4)n(Cc3ccc(C(N)=O)cc3)c2c1 [Compound I-200] fall in the same range of inhibition at 1 µM: 0 to 25% for the first, 0 to 25% for the second.

N=C(N)c1ccc2cc(C(=O)N3CCC(F)(F)C3)n(Cc3ccc(NC(=O)CCN)cc3)c2c1 [Compound I-376] and CC1CCC(NC(=O)c2c(Cl)c3ccc(C(=N)N)cc3n2Cc2ccc(-c3ccccc3)cc2)CC1 (stereo not shown) [Compound I-237] fall in the same range of inhibition at 1 µM: 0 to 25% for the first, 0 to 25% for the second.

For CCOC(=O)Nc1c(C(=O)N[C@H]2CC[C@H](N)CC2)n(Cc2ccc(Oc3ccccc3)cc2)c2cc(C(=N)NO)ccc12 [Compound I-254, Ethyl (2-(((1r,4r)-4-aminocyclohexyl)carbamoyl)-6-((Z)—N′-hydroxycarbamimidoyl)-1-(4-phenoxybenzyl)-1H-indol-3-yl)carbamate], the inhibition at 1 µM was 25 to 50%.
